Activity calls are given as the source filed them. No cut-off for these calls is given here.

This note sets out measurements from ChEMBL document CHEMBL3217736, “Novel aspects in structureactivity relationships of profiled 1-aza-9-oxafluorenes as inhibitors of Alzheimer's disease-relevant kinases cdk1, cdk5 and gsk3” (Medchemcomm, 2012).

For assay [1], the target named is Glycogen synthase kinase-3 beta (Homo sapiens, UniProt P49841). As to the kind of experiment: Inhibition of human recombinant GST-fused GSK-3beta expressed in insect Sf9 cells using RBER-CHKtide as substrate assessed as incorporation of 33Pi after 60 mins by microplate scintillation counting analysis.
In assay [2] the target is Cyclin-dependent kinase 5/CDK5 activator 1 (Homo sapiens) (UniProt Q00535+Q15078). The experiment in a line: (§1) Inhibition of human recombinant GST-fused CDK5/P25 expressed in insect Sf9 cells using RBER-CHKtide as substrate assessed as incorporation of 33Pi after 60 mins by microplate scintillation counting analysis.
In assay [3] the target is Cyclin-dependent kinase 1/cyclin B1 (Homo sapiens) (UniProt P06493+P14635). The experiment in a line: (§2) Inhibition of human recombinant GST-fused CDK1/cyclin B expressed in insect Sf9 cells using RBER-CHKtide as substrate assessed as incorporation of 33Pi after 60 mins by microplate scintillation counting analysis.
Assay [4] addresses Cyclin-dependent kinase 5/CDK5 activator 1 (Homo sapiens, UniProt Q00535). The description is as §1.
Assay [5] concerns the target Cyclin-dependent kinase 1/cyclin B1 (Homo sapiens, UniProt P06493). Described as §2.

Chain of Cyclin-dependent kinase 1/cyclin B1 (P06493 whole entry): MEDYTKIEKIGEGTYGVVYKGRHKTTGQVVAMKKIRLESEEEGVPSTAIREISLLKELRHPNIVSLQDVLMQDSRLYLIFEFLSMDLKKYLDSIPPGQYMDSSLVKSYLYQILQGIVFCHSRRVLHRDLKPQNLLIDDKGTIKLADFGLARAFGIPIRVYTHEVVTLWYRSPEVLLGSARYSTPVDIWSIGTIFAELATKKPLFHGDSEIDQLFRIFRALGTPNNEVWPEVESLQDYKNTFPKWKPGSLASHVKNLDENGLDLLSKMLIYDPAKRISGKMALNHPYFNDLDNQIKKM
Chain of Cyclin-dependent kinase 1/cyclin B1 (P14635 whole entry, further chain): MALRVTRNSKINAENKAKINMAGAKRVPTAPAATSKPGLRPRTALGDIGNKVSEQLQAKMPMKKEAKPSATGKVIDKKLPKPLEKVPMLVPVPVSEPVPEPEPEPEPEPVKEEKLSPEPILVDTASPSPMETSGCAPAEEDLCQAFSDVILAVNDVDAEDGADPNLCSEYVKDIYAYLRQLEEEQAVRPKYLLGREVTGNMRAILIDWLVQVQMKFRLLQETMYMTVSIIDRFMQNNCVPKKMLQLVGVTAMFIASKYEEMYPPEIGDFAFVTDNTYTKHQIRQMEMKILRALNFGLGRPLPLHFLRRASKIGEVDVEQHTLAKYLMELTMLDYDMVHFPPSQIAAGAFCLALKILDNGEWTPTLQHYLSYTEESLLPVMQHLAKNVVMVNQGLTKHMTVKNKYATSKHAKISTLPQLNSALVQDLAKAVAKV
Chain of Cyclin-dependent kinase 5/CDK5 activator 1 (Q00535 whole entry): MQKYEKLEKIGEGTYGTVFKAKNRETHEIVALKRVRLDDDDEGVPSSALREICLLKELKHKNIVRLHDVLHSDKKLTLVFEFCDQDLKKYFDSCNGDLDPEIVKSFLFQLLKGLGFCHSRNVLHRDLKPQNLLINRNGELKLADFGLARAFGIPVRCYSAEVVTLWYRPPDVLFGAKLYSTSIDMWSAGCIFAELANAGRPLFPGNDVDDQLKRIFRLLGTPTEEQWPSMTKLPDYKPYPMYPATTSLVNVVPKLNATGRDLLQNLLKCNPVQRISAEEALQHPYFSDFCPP
Chain of Cyclin-dependent kinase 5/CDK5 activator 1 (Q15078 whole entry, further chain): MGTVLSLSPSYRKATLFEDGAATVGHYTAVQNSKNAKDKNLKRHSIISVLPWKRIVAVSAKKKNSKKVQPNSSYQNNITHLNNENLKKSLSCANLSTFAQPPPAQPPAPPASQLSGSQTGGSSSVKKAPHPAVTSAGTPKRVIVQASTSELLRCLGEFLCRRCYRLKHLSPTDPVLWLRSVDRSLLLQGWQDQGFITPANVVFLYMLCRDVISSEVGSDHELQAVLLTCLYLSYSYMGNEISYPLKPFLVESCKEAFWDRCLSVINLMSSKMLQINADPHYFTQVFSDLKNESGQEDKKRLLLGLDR
Chain of Cyclin-dependent kinase 1/cyclin B1 (Homo sapiens) (P06493 whole entry, looked up, the tested form may be a part): as the sequence (P06493 whole entry) above
Chain of Cyclin-dependent kinase 1/cyclin B1 (Homo sapiens) (P14635 whole entry, looked up, the tested form may be a part): as the sequence (P14635 whole entry, further chain) above
Chain of Cyclin-dependent kinase 5/CDK5 activator 1 (Homo sapiens) (Q00535 whole entry, the tested form may be a part): as the sequence (Q00535 whole entry) above
Chain of Cyclin-dependent kinase 5/CDK5 activator 1 (Homo sapiens) (Q15078 99-307 partner limits assumed): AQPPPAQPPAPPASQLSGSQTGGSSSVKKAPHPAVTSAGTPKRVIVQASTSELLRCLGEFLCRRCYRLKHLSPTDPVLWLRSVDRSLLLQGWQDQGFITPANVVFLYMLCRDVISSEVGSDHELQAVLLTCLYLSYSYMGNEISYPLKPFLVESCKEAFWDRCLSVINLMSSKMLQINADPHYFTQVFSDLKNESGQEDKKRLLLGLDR

For `Oc1ccc2oc3ncc(OCc4ccccc4)c(-c4ccccc4)c3c2c1`, the inhibition entry in assay [1], in assay [2] and in assay [3] was “Active” throughout.

The term Ki denotes the equilibrium dissociation constant of an inhibitor or competing ligand from its target. For the molecule `NCCNC(=O)c1cnc2oc3ccc(O)cc3c2c1-c1ccccc1`, the Ki amounted to 4.8 µM in assay [1] (read-out: Ki), 12.9 µM in assay [4] and 2 µM in assay [5].

Turning to `CCNC(=O)c1cnc2oc3ccc(O)cc3c2c1-c1ccccc1`, the Ki result in assay [1] (sf9) was “ND(Insoluble)”; in assay [4], 16.7 µM; in assay [5], 2.1 µM.

With `CCCNC(=O)c1cnc2oc3ccc(O)cc3c2c1-c1ccccc1`, the results for the Ki in assay [1] (read-out: Ki), in assay [4] and in assay [5] were 4.4 µM, 14.6 µM and 1.6 µM, respectively.

Regarding `CNC(=O)c1cnc2oc3ccc(O)cc3c2c1-c1ccccc1`, the Ki is 9 µM in assay [1] (read-out: Ki), greater than 1000 µM in assay [4] and greater than 1000 µM in assay [5].

For the molecule `COc1cc2oc3ncc(OCc4ccccc4)c(-c4ccccc4)c3c2c(OC)c1O`, the Ki worked out at 5.4 µM in assay [1] (read-out: Ki), 13.6 µM in assay [4] and 0.2 µM in assay [5].

With `COc1ccc2oc3ncc(OCc4ccccc4)c(-c4ccccc4)c3c2c1`, the Ki in assay [4] is 25.1 µM.

Consider `COc1cc2oc3ncc(OCc4ccccc4)c(-c4ccccc4)c3c2cc1O`, for which the Ki result in assay [1] (sf9) was “ND(Insoluble)”; in assay [4], 13.8 µM; in assay [5], 1.9 µM.

On to `COc1cc2c(oc3ncc(OCc4ccccc4)c(-c4ccccc4)c32)c2ccccc12`, for which the Ki in assay [1] (read-out: Ki), in assay [4] and in assay [5] was greater than 1000 µM each time.
